{"source": "patent US10058545B2", "about": "“Method of treating pulmonary arterial hypertension” (Cipla Limited, priority 2016, dated 2018)", "key": {"[1]": {"system": "rats with monocrotaline induced pulmonary arterial hypertension", "assay": "Monocrotaline rat PAH efficacy model: terminal hemodynamics, heart/lung weights", "conditions": "for Body Weight / HR / HW/BW / Heart Weight / LV Weight / Lung Weight / MAP / Mean PAP / RV Weight / RV/BW / RV/LV + S (Fulton's Index) / Systolic PAP: Day 28 after MCT, Mean ± SEM", "procedure": "The studies were conducted for hemodynamic evaluation of cinitpride in anesthetized sprague dawley rats treated with monocrotaline (“MCT”) to induce pulmonary arterial hypertension. Sildenafil was used as an internal control to compare the effects of cinitapride.\nThe effects of cinitapride were evaluated in rats with monocrotaline induced pulmonary arterial hypertension using sildenafil as standard care treatment. Male Sprague-Dawley rats were orally administered vehicle cinitapride (0.3 or 0.9 mg/kg total daily dose, divided into a BID regimen given every day for 28 days starting on Day 1), or sildenafil (30 mg/kg, administered twice daily) (n=10 in each group). Rats received a single injection of monocrotaline (60 mg/kg, s.c.) on Study Day 1. On the twenty-eighth day following monocrotaline dosing, the rats were anesthetized with ketamine/xylazine for terminal monitoring of pulmonary and systemic arterial pressures along with heart rate.\nVehicle (0.5% Methylcellulose+0.2% Tween 80 in deionized water, Cinitapride (0.3 or 0.9 mg/kg total daily dose; Sildenafil (30 mg/kg, administered twice daily)\n(§1) Male Sprague-Dawley rats in groups 2 to 5 were administered […] of body weight of Monocrotaline in DMSO subcutaneously to induce PAH on day 1. The DMSO group (Group 1) received a single dose of DMSO subcutaneously on day 1. The vehicle group received 5 ml of vehicle every morning. The cinitapride as well as sildenafil groups were orally administered cinitapride (0.3 or 0.9 mg/kg total daily dose, divided into a BID regimen given every day for 28 days starting on Day 1), or sildenafil (30 mg/kg, administered twice daily). On the twenty-eighth day after monocrotaline dosing, the rats were anesthetized with ketamine/xylazine for terminal monitoring of pulmonary and systemic arterial pressures along with heart rate."}, "[2]": {"system": "pulmonary arterioles of rats with monocrotaline induced pulmonary arterial hypertension", "assay": "Monocrotaline rat PAH model: lung histopathology (smooth muscle hypertrophy, muscularization of pulmonary arterioles)", "assay_type": "in vivo, Sprague-Dawley rats", "conditions": "for mean hypertrophy score (smooth muscle hypertrophy of small arterioles): score 0 (normal) to 4 (marked), monocrotaline+vehicle 2.7", "procedure": "as §1\nLater the animals were sacrificed and histopathological evaluation was performed to assess pulmonary arterioles for smooth muscle hypertrophy & muscularization of pulmonary arterioles.\nThe elastin/eosin stained lung section were examined microscopically and histopathological findings were recorded as smooth muscle hypertrophy of small arterioles and muscularization of pulmonary arterioles. The finding were recorded as 0 (normal), 1 (minimal), 2 (mild), 3 (moderate) or 4 (marked). Scoring smooth muscle hypertrophy in small pulmonary arterioles was based on the thickness of muscular wall & extent of finding (apparent no. of arterioles affected)."}, "[3]": {"conditions": "Sildenafil 60 mg/kg per day bid, oral"}, "[4]": {"conditions": "Cinitapride 0.3 mg/kg per day bid, oral"}, "[5]": {"conditions": "Cinitapride 0.9 mg/kg per day bid, oral"}}, "data": [{"compound": "CCCc1nn(C)c2c(=O)[nH]c(-c3cc(S(=O)(=O)N4CCN(C)CC4)ccc3OCC)nc12", "note": "[Sildenafil]", "values": [{"measurement": "Body Weight", "setting": "[1]; [3]", "value": "0.32 ± 0.01", "unit": "kg"}, {"measurement": "HR", "setting": "[1]; [3]", "value": "278 ± 21", "unit": "bpm"}, {"measurement": "HW/BW", "setting": "[1]; [3]", "value": "3.89 ± 0.17"}, {"measurement": "Heart Weight", "setting": "[1]; [3]", "value": "1.24 ± 0.02", "unit": "g"}, {"measurement": "LV Weight", "setting": "[1]; [3]", "value": "0.74 ± 0.02", "unit": "g"}, {"measurement": "Lung Weight", "setting": "[1]; [3]", "value": "2.36 ± 0.13", "unit": "g"}, {"measurement": "MAP", "setting": "[1]; [3]", "value": "69 ± 5", "unit": "mmHg"}, {"measurement": "Mean PAP", "setting": "[1]; [3]", "value": "38 ± 6", "unit": "mmHg"}, {"measurement": "RV Weight", "setting": "[1]; [3]", "value": "0.38 ± 0.02", "unit": "g"}, {"measurement": "RV/BW", "setting": "[1]; [3]", "value": "1.19 ± 0.09"}, {"measurement": "RV/LV + S (Fulton's Index)", "setting": "[1]; [3]", "value": "0.51 ± 0.03"}, {"measurement": "Systolic PAP", "setting": "[1]; [3]", "value": "46 ± 7", "unit": "mmHg"}, {"measurement": "hypertrophic index (RV wt corrected by body weight)", "setting": "[1]; sildenafil", "value": "decrease"}]}, {"compound": "CCOc1cc(N)c([N+](=O)[O-])cc1C(=O)NC1CCN(CC2CC=CCC2)CC1", "note": "(centres unmarked) [Cinitapride]", "values": [{"measurement": "completely muscularized arterioles, group mean percentage", "setting": "[2]; 0.45 mg/kg cinitapride twice daily following MCT, vehicle following MCT 52.1%", "value": 38.2, "unit": "%"}, {"measurement": "vascular smooth muscle hypertrophy compared to control group (FIG. 4)", "setting": "[2]; cinitapride 0.15 mg/kg after monocrotaline induction", "value": "mild vascular smooth muscle hypertrophy"}, {"measurement": "presence of smooth muscle hypertrophy in small arterioles", "setting": "[2]; cinitapride 0.15 mg/kg and 0.45 mg/kg twice daily following Monocrotaline", "value": "substantially decreased"}, {"measurement": "vascular smooth muscle hypertrophy compared to control group (FIG. 5)", "setting": "[2]; cinitapride 0.45 mg/kg after monocrotaline induction", "value": "mild vascular smooth muscle hypertrophy"}, {"measurement": "mean hypertrophy score (smooth muscle hypertrophy of small arterioles)", "setting": "[2]; monocrotaline+cinitapride 0.15 bid", "value": 1.9}, {"measurement": "mean hypertrophy score (smooth muscle hypertrophy of small arterioles)", "setting": "[2]; monocrotaline+cinitapride 0.45 bid", "value": 2.1}, {"measurement": "systolic pulmonary arterial pressure compared to the vehicle group", "setting": "[1]; 0.9 mg/kg/day cinitapride, after 28 days", "value": "reduction in systolic pulmonary arterial pressure"}, {"measurement": "Body Weight", "setting": "[1]; [4]", "value": "0.32 ± 0.02", "unit": "kg"}, {"measurement": "HR", "setting": "[1]; [4]", "value": "299 ± 17", "unit": "bpm"}, {"measurement": "HW/BW", "setting": "[1]; [4]", "value": "3.71 ± 0.20"}, {"measurement": "Heart Weight", "setting": "[1]; [4]", "value": "1.17 ± 0.05", "unit": "g"}, {"measurement": "LV Weight", "setting": "[1]; [4]", "value": "0.68 ± 0.04", "unit": "g"}, {"measurement": "Lung Weight", "setting": "[1]; [4]", "value": "2.36 ± 0.16", "unit": "g"}, {"measurement": "MAP", "setting": "[1]; [4]", "value": "77 ± 8", "unit": "mmHg"}, {"measurement": "Mean PAP", "setting": "[1]; [4]", "value": "43 ± 5", "unit": "mmHg"}, {"measurement": "RV Weight", "setting": "[1]; [4]", "value": "0.35 ± 0.02", "unit": "g"}, {"measurement": "RV/BW", "setting": "[1]; [4]", "value": "1.14 ± 0.10"}, {"measurement": "RV/LV + S (Fulton's Index)", "setting": "[1]; [4]", "value": "0.53 ± 0.04"}, {"measurement": "Systolic PAP", "setting": "[1]; [4]", "value": "55 ± 8", "unit": "mmHg"}, {"measurement": "Body Weight", "setting": "[1]; [5]", "value": "0.32 ± 0.02", "unit": "kg"}, {"measurement": "HR", "setting": "[1]; [5]", "value": "295 ± 9", "unit": "bpm"}, {"measurement": "HW/BW", "setting": "[1]; [5]", "value": "3.52 ± 0.16"}, {"measurement": "Heart Weight", "setting": "[1]; [5]", "value": "1.10 ± 0.05", "unit": "g"}, {"measurement": "LV Weight", "setting": "[1]; [5]", "value": "0.70 ± 0.03", "unit": "g"}, {"measurement": "Lung Weight", "setting": "[1]; [5]", "value": "2.30 ± 0.20", "unit": "g"}, {"measurement": "MAP", "setting": "[1]; [5]", "value": "76 ± 2", "unit": "mmHg"}, {"measurement": "Mean PAP", "setting": "[1]; [5]", "value": "37 ± 3", "unit": "mmHg"}, {"measurement": "RV Weight", "setting": "[1]; [5]", "value": "0.31 ± 0.03", "unit": "g"}, {"measurement": "RV/BW", "setting": "[1]; [5]", "value": "1.01 ± 0.11"}, {"measurement": "RV/LV + S (Fulton's Index)", "setting": "[1]; [5]", "value": "0.45 ± 0.04"}, {"measurement": "Systolic PAP", "setting": "[1]; [5]", "value": "45 ± 4", "unit": "mmHg"}, {"measurement": "effect on right ventricular hypertrophy (RV/LV+S, Fulton's Index) compared to vehicle", "setting": "[1]; cinitapride 0.3 mg/kg/day", "value": "−10", "unit": "%"}, {"measurement": "effect on right ventricular hypertrophy (RV/LV+S, Fulton's Index) compared to vehicle", "setting": "[1]; cinitapride 0.9 mg/kg/day", "value": "−25", "unit": "%"}, {"measurement": "efficacy at reducing monocrotaline-induced pulmonary hypertension (overall mortality, pulmonary hemodynamics, right ventricular hypertrophy) versus sildenafil", "setting": "[1]; cinitapride 0.9 mg/kg/day given BID, oral", "value": "superior to the positive control"}, {"measurement": "decrease in hypertrophy, RV (wt) corrected by body weight", "setting": "[1]; cinitapride highest dose, p<0.05", "value": 33, "unit": "%"}, {"measurement": "activity in controlling or reducing PAH relative to Sildenafil", "setting": "[1]; rat, in vivo", "value": "comparable"}, {"measurement": "heart rate or mean arterial pressure compared to vehicle", "setting": "[1]; rats treated with cinitapride", "value": "No substantive differences"}]}]}
